According to patent US20260345530A1, “Use of a Therapeutic Agent with Sodium-Hydrogen Antiporter 1 Inhibitory Activity for the Treatment and Prevention of Diseases Associated with Chronic Fatigue, Exhaustion and/or Exertional Intolerance” (MITODICURE GMBH, priority 2022, published 2026):

Key:
Ca2^+ and Na+ overload = settings: preclinical; Chahine et al. doi: 10.1016/j.yjmcc.2005.01.003; Bkaily and Jacques doi: 10.1139/cjpp-2017-0265; cited from earlier work
[1] = tested on: myocardial infarction and dystrophic cardiomyopathy including DMD; settings: animal models; Ghaleh et al. doi: 10.1016/j.ijcard.2020.03.031; cited from earlier work
[2] = tested on: isolated rat soleus muscle; test: Ex vivo model of residual muscle force (fatigue) in isolated rat soleus muscle after sodium overload by high NaCl (200 mM) buffer; parameters: species or system rat (female Sprague Dawley); settings: for residual contractile force compared with baseline control: drug concentrations of 30 to 500 nM, added 10 min before 30 min in 200 mM NaCl buffer, then stimulation in physiological NaCl buffer, 30 °C, pH 7.4, controls without inhibitor 10% to 20%; for effect on rat soleus muscle force decline: high NaCl (200 mM) protocol, result in words
Source text: The claim of this patent is that NHE1 inhibitors can improve disturbed body function and symptoms of ME/CFS, as an example of diseases associated with chronic fatigue (DACF). Muscular fatigue and loss of force (e.g., loss of handgrip strength) is a hallmark in ME/CFS patients. A main target of NHE1 inhibition is the skeletal muscle whose energetic function is deeply disturbed in ME/CFS and which is presumed to be very important in the symptomatology of ME/CFS. NHE1 activity plays a key role in the development of the disturbances by a rise in intramuscular sodium that finally leads to calcium overload. The latter causes a deep functional energetic disturbance or damage. The isolated rat muscle either soleus muscle or extensor digitorum longus muscle is a well-characterized and well-validated model for the study of the function of ion exchangers. The isolated rat soleus muscle is particularly appropriate for experiments ex vivo as it is very thin so that there is no need for blood supply. […] In this experimental setting, a high NaCl concentration buffer causes sodium influx to disturb and decrease excitability and to disturb calcium homeostasis to subsequently reduce muscle force. Inhibition of the NHE1, which exchanges one proton for the uptake of one sodium ion, reduces sodium entry and overload. Prevention or diminution of a loss of muscular force in this procedure indicates effective inhibition of NHE1 by a test compound with the described mode of action of NHE1-inhibition.
The decline in force in the soleus muscle can be considered as muscular fatigue and related to the loss of hand grip muscular strength in ME/CFS patients. The described ex vivo model is suited for testing the effect of NHE1 inhibitors and in particular their effect on force generation disturbed by mechanisms that worsen excitability or the energetic situation or calcium homeostasis via the sodium-calcium-exchanger. High NaCl in a buffer (200 mM) is used to cause intracellular sodium loading leading to a decline in contractile force.
The resulting decline in muscular force is considered as muscular fatigue. In the absence of electrical stimulation avoiding sodium entry by sodium channels the sodium influx during high NaCl exposure is due to the NHE1. Inhibition of NHE1 can prevent sodium overload and a decline in muscular force and fatigue.
Muscle preparation and incubation: Female Sprague Dawley rats of 5 weeks of age are used. After isoflurane anesthesia and cervical dislocation the intact soleus muscles of the animals is dissected. […]
Force measurement: The experimental set-up for force measurements allows for the simultaneous recordings from 6 muscles in separate incubation chambers in parallel. Force is recorded and stored with a Notocord HEM data acquisition system. […]

Row | Structure (SMILES) | effect in preventing the deleterious effects of Ca2^+ and Na+ overload (Ca2^+ and Na+ overload) | cardioprotective effects [1] | residual contractile force compared with baseline control [2] | effect on rat soleus muscle force decline [2]
1 | CC(C)c1ccc(C(=O)NC(=N)N)cc1S(C)(=O)=O [Cariporide] | beneficial effects | cardioprotective effects | 50-70% | diminished the loss of force
2 | Cc1cc(S(C)(=O)=O)c(S(C)(=O)=O)cc1C(=O)N=C(N)N [Rimeporide, N-(4,5-bismethanesulfonyl-2-methylbenzoyl)guanidine] | beneficial effects | cardioprotective effects | 50-70% | diminished the loss of force
